Experimental data as given in patent US11484561B2, “Morus extracts rich in N-acids of imino sugars and or pipecolic acids” (Phynova Limited, priority 2011, dated 2022).

How the values were obtained:
[1] = biological target: T1, human recombinant α-L-iduronidase (Homo sapiens, UniProt P35475); assay: α-L-iduronidase inhibition; type: biochemical
T1 sequence (P35475 28-653): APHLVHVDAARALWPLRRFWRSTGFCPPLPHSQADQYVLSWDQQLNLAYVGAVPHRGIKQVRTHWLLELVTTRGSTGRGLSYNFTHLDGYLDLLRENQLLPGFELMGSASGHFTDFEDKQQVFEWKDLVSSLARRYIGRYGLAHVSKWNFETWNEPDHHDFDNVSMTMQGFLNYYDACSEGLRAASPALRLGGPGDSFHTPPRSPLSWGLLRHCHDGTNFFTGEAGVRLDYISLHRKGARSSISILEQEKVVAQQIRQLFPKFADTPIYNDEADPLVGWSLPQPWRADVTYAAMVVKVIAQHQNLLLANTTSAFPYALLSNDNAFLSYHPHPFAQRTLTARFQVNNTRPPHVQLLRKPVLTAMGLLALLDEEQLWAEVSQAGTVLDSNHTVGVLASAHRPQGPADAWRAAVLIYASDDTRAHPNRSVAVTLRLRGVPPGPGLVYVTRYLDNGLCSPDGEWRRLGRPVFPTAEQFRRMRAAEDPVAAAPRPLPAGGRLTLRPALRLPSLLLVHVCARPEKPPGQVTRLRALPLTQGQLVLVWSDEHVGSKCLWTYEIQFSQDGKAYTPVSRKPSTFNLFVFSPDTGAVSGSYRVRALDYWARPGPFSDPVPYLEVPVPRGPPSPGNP

[2] = biological target: T2, α-D-mannosidase (Jack bean) (Canavalia ensiformis, UniProt C0HJB3); assay: Glycosidase assay, α-D-mannosidase (Jack bean); type: biochemical; settings: Table 16; % inhibition; concentration not given
T2 construct: purchased Sigma-Aldrich
T2 sequence (C0HJB3 1-562 limits assumed): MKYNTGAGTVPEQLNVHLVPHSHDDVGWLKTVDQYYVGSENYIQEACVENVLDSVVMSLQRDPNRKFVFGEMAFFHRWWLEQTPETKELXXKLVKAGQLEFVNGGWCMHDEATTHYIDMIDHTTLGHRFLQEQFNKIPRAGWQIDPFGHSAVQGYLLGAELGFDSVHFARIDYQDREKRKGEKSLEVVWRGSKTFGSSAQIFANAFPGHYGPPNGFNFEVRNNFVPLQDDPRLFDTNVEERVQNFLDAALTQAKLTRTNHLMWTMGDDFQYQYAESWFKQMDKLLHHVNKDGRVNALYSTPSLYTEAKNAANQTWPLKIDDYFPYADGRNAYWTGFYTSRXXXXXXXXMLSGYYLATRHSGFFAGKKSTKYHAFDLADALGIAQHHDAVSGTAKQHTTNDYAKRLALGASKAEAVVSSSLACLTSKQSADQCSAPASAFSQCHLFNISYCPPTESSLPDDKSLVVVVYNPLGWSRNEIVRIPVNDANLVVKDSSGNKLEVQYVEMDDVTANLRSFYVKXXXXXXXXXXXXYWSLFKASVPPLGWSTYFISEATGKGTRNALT
Method: The assays used p-nitrophenyl-substrates and commercial enzymes purchased from Sigma-Aldrich. Enzymes were assayed at 27° C. in 0.1M citric acid/0.2M disodium hydrogen phosphate buffers at the optimum pH for the enzyme. The incubation mixture consisted of 10 μl enzyme solution, 10 μl of 10 mg/ml aqueous solution of extract and 50 μl of the appropriate 5 mM p-nitrophenyl substrate made up in buffer at the optimum pH for the enzyme. […] Final absorbances were read at 405 nm using a Versamax microplate reader (Molecular Devices). Assays were carried out in triplicate, and the values given are means of the three replicates per assay. Results are expressed as % inhibition.
(§1) Substrates are 10 mM p-nitrophenyl-glycopyranosides. Enzymes are purchased from Sigma and run at the pH optima

[3] = tested on: α-D-glucosidase (Bacillus); assay: Glycosidase assay, α-D-glucosidase (Bacillus); type: biochemical; settings: Table 16; % inhibition; concentration not given
Method: (§2) The assays used p-nitrophenyl-substrates and commercial enzymes purchased from Sigma-Aldrich. Enzymes were assayed at 27° C. in 0.1M citric acid/0.2M disodium hydrogen phosphate buffers at the optimum pH for the enzyme. The incubation mixture consisted of 10 μl enzyme solution, 10 μl of 10 mg/ml aqueous solution of extract and 50 μl of the appropriate 5 mM p-nitrophenyl substrate made up in buffer at the optimum pH for the enzyme. The reactions were stopped by addition of 70 μl 0.4M glycine (pH 10.4) during the exponential phase of the reaction, which had been determined at the beginning using uninhibited assays in which water replaced mulberry fractions. Final absorbances were read at 405 nm using a Versamax microplate reader (Molecular Devices). Assays were carried out in triplicate, and the values given are means of the three replicates per assay. Results are expressed as % inhibition.
as §1

[4] = tested on: naringinase (P. decumbens); assay: Glycosidase assay, naringinase (P. decumbens); type: biochemical; settings: Table 16; % inhibition; concentration not given
Method: as §2, §1

glycogen phosphorylase = assay: Glycogen phosphorylase assay; type: biochemical; settings: words, no concentration
[5] = biological target: T3, α-D-galactosidase (green coffee bean) (Coffea arabica, UniProt Q42656); settings: typical DNJ inhibitory activity shown for reference, in words; cited from earlier work
T3 construct: purchased Sigma-Aldrich
T3 sequence (Q42656 16-378): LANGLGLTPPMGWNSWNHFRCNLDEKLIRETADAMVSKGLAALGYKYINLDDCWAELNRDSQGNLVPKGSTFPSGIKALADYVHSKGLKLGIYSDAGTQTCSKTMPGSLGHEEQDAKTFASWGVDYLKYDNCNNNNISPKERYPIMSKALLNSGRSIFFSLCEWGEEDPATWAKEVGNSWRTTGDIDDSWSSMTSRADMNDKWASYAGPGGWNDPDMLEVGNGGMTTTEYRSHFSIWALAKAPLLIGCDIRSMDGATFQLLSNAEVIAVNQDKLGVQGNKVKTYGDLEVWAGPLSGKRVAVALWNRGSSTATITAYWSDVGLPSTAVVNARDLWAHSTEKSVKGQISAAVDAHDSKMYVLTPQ

α-D-glucosidase (Yeast) = biological target: T4, α-D-glucosidase (Yeast) (Saccharomyces cerevisiae, UniProt P53341); settings: typical DNJ inhibitory activity shown for reference, in words; cited from earlier work
T4 construct: purchased Sigma-Aldrich
T4 sequence (P53341 whole entry): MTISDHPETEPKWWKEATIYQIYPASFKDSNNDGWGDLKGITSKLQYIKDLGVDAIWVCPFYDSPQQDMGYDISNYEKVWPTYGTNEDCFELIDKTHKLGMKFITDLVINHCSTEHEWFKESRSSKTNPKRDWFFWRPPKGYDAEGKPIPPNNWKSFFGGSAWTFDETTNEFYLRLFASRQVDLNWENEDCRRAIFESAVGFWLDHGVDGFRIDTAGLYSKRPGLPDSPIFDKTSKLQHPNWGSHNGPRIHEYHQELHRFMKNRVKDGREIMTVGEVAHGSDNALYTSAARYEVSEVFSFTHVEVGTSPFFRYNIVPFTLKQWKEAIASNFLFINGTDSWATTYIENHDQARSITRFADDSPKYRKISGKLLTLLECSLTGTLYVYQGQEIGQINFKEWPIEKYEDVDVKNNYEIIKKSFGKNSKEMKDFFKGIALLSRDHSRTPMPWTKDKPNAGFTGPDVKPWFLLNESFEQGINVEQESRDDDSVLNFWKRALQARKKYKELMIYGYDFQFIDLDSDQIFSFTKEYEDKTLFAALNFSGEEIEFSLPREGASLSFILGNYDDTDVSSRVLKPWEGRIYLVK

[6] = tested on: N-acetyl-β-D-gluc (Bovine kidney); parameters: key: NI = no inhibition; settings: typical DNJ inhibitory activity shown for reference, in words; cited from earlier work
[7] = biological target: T5, β-glucuronidase (bovine liver) (Bos taurus, UniProt A3KMY8); parameters: key: NI = no inhibition; settings: typical DNJ inhibitory activity shown for reference, in words; cited from earlier work
T5 construct: purchased Sigma-Aldrich; host or cells: bovine liver
T5 sequence (A3KMY8 1-652): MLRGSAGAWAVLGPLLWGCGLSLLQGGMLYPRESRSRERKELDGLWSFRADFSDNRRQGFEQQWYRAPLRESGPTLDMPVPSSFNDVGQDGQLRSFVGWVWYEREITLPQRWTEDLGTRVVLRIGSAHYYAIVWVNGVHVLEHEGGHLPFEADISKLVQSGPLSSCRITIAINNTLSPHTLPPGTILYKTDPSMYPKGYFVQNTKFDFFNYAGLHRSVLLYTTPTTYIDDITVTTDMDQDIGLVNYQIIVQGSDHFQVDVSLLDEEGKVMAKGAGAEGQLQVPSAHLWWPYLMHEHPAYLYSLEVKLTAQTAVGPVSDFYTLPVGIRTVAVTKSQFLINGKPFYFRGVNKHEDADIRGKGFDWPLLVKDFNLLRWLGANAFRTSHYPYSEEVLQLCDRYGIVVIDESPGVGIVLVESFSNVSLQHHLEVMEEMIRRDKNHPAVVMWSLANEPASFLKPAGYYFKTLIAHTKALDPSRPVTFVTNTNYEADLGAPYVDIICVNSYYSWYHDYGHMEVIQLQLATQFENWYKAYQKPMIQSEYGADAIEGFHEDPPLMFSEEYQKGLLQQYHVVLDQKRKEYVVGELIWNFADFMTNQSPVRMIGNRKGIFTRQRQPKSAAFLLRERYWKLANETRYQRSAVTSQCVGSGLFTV

[8] = tested on: naringinase (P. decumbens); parameters: key: NI = no inhibition; settings: typical DNJ inhibitory activity shown for reference, in words; cited from earlier work

Row | Compound | IC50 [1] | α-D-mannosidase (Jack bean) [2] | α-D-glucosidase (Bacillus) [3] | Naringinase (P. decumbens) [4] | glycogen phosphorylase inhibition (glycogen phosphorylase) | α-D-gal green coffee bean, typical DNJ inhibitory activity [5] | α-D-glu Yeast, typical DNJ inhibitory activity (α-D-glucosidase (Yeast)) | N-acetyl-β-D-gluc (Bovine kidney, typical DNJ inhibitory activity) [6] | β-glucuronidase (bovine liver), typical DNJ inhibitory activity [7] | naringinase Penecillium, typical DNJ inhibitory activity [8] | inhibition of the iduronidase, in words ([1]; at 0.8 mM)
1 | O=C(O)CN1C[C@@H](O)[C@H](O)[C@H]1CO [DAB-N-ethanoic, DAB-N-ethanoic acid] | 196 µM | 28% | 24.2% | 0% |  |  |  |  |  |  | 
2 | OC[C@H]1NC[C@H](O)[C@@H](O)[C@@H]1O [DNJ, 1 deoxynojirmycin] |  | 27% | 100% | 21% | do not inhibit | weak | weak | NI | NI | NI | 
3 | O=C(O)CN1C[C@H](O)[C@@H](O)[C@H](O)[C@H]1CO [DNJ-N-ethanoic, DNJ-ethanoic acid] |  | 38% | 9.1% | 0% |  |  |  |  |  |  | only weakly inhibits
4 | O=C(O)CCN1C[C@H](O)[C@@H](O)[C@H](O)[C@H]1CO [DNJ-N-propanoic, DNJ-N-propanoic acid] | 383 µM | 40% | 45.0% | 4% |  |  |  |  |  |  | 
